The values that follow come from patent US7964531B2, “3-phenoxy-4-pyridazinol derivatives and herbicidal composition containing the same” (Mitsui Chemicals Agro, Inc., priority 2001, dated 2011).

Common to all, as to format: in vivo
Data set [1] relates to Cyperus serotinus. Kind of data set: Test Example 4: herbicidal effects of mixed wettable powder, paddy-field pot test. The following applies: after 25 days. The procedure: (§1) Paddy filed soil was filled in 1/5000 are Wagner pot, seeds of barnyardgrass (Echinochloa oryzicola Vasing.), Scirpus joncoides and annual broad-leaved weeds (Lindernia spp. and Rotala indica) which are awaken from dormancy were mixed at the surface layer of 1 cm. Also, tubers of Cyperus serotinus, Sagittaria pygmaea and Eleocharis kuroguwai which are awaken from dormancy were planted, and further seedlings of paddy-field rice at 2.2-leaf stage were transplanted and they were grown under the flooded condition in a greenhouse. After 3 days from the transplanting, a predetermined chemical dosage of the wettable powder prepared in accordance with Preparation example 5 was diluted with water, and applied to the pot. After 25 days, herbicidal effects and crop injury against transplanted paddy-field rice were judged according to the following judgment standard, and the results were shown in Table 5. Incidentally, “-” in the table means a composition containing no effective ingredient.
(§2) Judgment Standard • 0: Growth-inhibition rate; 0 to 15% • 1: Growth inhibition rate; 16 to 35% • 2: Growth inhibition rate; 36 to 55% • 3: Growth inhibition rate; 56 to 75% • 4: Growth inhibition rate; […] • 5: Growth inhibition rate; 96 to 100%.

A further data set deals with Eleocharis kuroguwai. Described as above. The following applies: after 25 days. The procedure: as §1, §2
The next data set relates to Sagittaria pygmaea. The description is as above. Particulars: after 25 days. The procedure: as §1, §2
Data set [2] concerns Scirpus joncoides. The data set is described as above. The following applies: after 25 days. The procedure: as §1, §2
Data set [3] has as its system annual broad-leaved weeds (Lindernia spp. and Rotala indica). The description is as above. The following applies: after 25 days. On the procedure:
as §1, §2

In data set [4] the test system is barnyardgrass (Echinochloa oryzicola Vasing.). The data set is described as above. Particulars: after 25 days. On the procedure:
as §1, §2

For data set [5], the system named is transplanted paddy-field rice. Put plainly: Test Example 4: crop injury against transplanted paddy-field rice. The following applies: after 25 days. On the procedure:
as §1, §2

Data set [6] relates to Cyperus serotinus. Kind of data set: Test Example 1: herbicidal effects, paddy-field pot test. Particulars: wettable powder applied 3 days after transplanting, judged after 25 days. The method in brief: (§3)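 Paddy soil pots sown with dormancy-broken weed seeds mixed into the top 1 cm, plus germinated Cyperus serotinus tubers and transplanted 2.2-leaf rice seedlings, grown flooded in a greenhouse. Water-diluted wettable powder applied 3 days after transplanting; growth inhibition scored 25 days later on a 0–5 scale (0 = 0–10%, 5 = 91–100%).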

In data set [7] the test system is Scirpus joncoides. The description is as above. The following applies: wettable powder applied 3 days after transplanting, judged after 25 days. Summed up:
as §3

Data set [8] relates to annual broad-leaved weeds (Lindernia spp., Rotala indica). The data set is described as above. Particulars: wettable powder applied 3 days after transplanting, judged after 25 days. The method in brief:
as §3

Data set [9] deals with barnyardgrass (Echinochloa oryzicola Vasing.). The description is as above. Particulars: wettable powder applied 3 days after transplanting, judged after 25 days. Summed up:
as §3

For data set [10], the system named is transplanted paddy-field rice. Put plainly: Test Example 1: crop injury against transplanted paddy-field rice. Particulars: wettable powder applied 3 days after transplanting, judged after 25 days. The method in brief:
as §3

Regarding `Cc1ccc(C(=O)COc2c(C(=O)c3c(Cl)ccc(C)c3Cl)c(C)nn2C)cc1` [Compound C, 2-[4-(2,4-dichloro-m-toluoyl)-1,3-dimethylpyrazol-5-yloxy]-4′-methyl-acetophenone, reference compound], the “Herbicidal effects Cyperus serotinus” value in the data set with Cyperus serotinus [1] (second compound alone 5 g/a) was 1 (Growth inhibition rate; 16 to 35%); in the data set on Cyperus serotinus [1] (second compound alone 30 g/a) it was 4 (Growth inhibition rate; 7.6 to 95%). Moreover, the “Herbicidal effects Eleocharis kuroguwai” value in the data set on Eleocharis kuroguwai (second compound alone 5 g/a) is 0 (Growth-inhibition rate; 0 to 15%); in the data set with Eleocharis kuroguwai (second compound alone 30 g/a), 2 (Growth inhibition rate; 36 to 55%). Further, the “Herbicidal effects Sagittaria pygmaea” value with Sagittaria pygmaea (second compound alone 5 g/a) is 4 (Growth inhibition rate; 7.6 to 95%); in the data set with Sagittaria pygmaea (second compound alone 30 g/a), 5 (Growth inhibition rate; 96 to 100%). Also, the figures for the “Herbicidal effects Scirpus joncoides” value with Scirpus joncoides [2] (second compound alone 5 g/a) and with Scirpus joncoides [2] (second compound alone 30 g/a) were 2 (Growth inhibition rate; 36 to 55%) and 4 (Growth inhibition rate; 7.6 to 95%), respectively. For the same compound, the “Herbicidal effects Broad leaf” value in data set [3] (second compound alone 5 g/a) and in [3] (second compound alone 30 g/a) was 5 (Growth inhibition rate; 96 to 100%) throughout. Besides, the “Herbicidal effects Barnyard grass” value in data set [4] (second compound alone 5 g/a) is recorded as 3 (Growth inhibition rate; 56 to 75%); in data set [4] (second compound alone 30 g/a), 5 (Growth inhibition rate; 96 to 100%). In addition, the “Crop injury against transplanted rice” value in data set [5] (second compound alone 5 g/a) and in data set [5] (second compound alone 30 g/a) was 0 (Growth-inhibition rate; 0 to 15%) throughout.

For the compound `Cc1ccc(S(=O)(=O)Oc2c(C(=O)c3ccc(Cl)cc3Cl)c(C)nn2C)cc1` [Compound A, 4-(2,4-dichlorobenzoyl)-1,3-dimethyl-5-pyrazolyl-p-toluenesulfonate, reference compound], the “Herbicidal effects Cyperus serotinus” value in the data set with Cyperus serotinus [1] (second compound alone 5 g/a) is given as 2 (Growth inhibition rate; 36 to 55%); with Cyperus serotinus [1] (second compound alone 30 g/a), 4 (Growth inhibition rate; 7.6 to 95%). Further, the “Herbicidal effects Eleocharis kuroguwai” value is reported as 0 (Growth-inhibition rate; 0 to 15%) with Eleocharis kuroguwai (second compound alone 5 g/a) and 2 (Growth inhibition rate; 36 to 55%) with Eleocharis kuroguwai (second compound alone 30 g/a). The “Herbicidal effects Sagittaria pygmaea” value in the data set with Sagittaria pygmaea (second compound alone 5 g/a) was 4 (Growth inhibition rate; 7.6 to 95%); with Sagittaria pygmaea (second compound alone 30 g/a) it was 5 (Growth inhibition rate; 96 to 100%). The “Herbicidal effects Scirpus joncoides” value in the data set on Scirpus joncoides [2] (second compound alone 5 g/a) was 3 (Growth inhibition rate; 56 to 75%); with Scirpus joncoides [2] (second compound alone 30 g/a), 4 (Growth inhibition rate; 7.6 to 95%). Also, the figures for the “Herbicidal effects Broad leaf” value in [3] (second compound alone 5 g/a) and in data set [3] (second compound alone 30 g/a) were 4 (Growth inhibition rate; 7.6 to 95%) and 5 (Growth inhibition rate; 96 to 100%), respectively. The results for the “Herbicidal effects Barnyard grass” value in data set [4] (second compound alone 5 g/a) and in data set [4] (second compound alone 30 g/a) were 3 (Growth inhibition rate; 56 to 75%) and 5 (Growth inhibition rate; 96 to 100%), respectively. The “Crop injury against transplanted rice” value in [5] (second compound alone 5 g/a) and in data set [5] (second compound alone 30 g/a) was 0 (Growth-inhibition rate; 0 to 15%) in each case.

In the case of `Cc1ccc(C)c(Oc2nnc(Cl)cc2O)c1Br` [Example 290], the “Herbicidal effects Cyperus serotinus” value with Cyperus serotinus [6] (chemical dosage 10 g/a) is listed as 5 (Growth inhibition rate; 91 to 100%). In addition, the “Herbicidal effects Scirpus joncoides” value with Scirpus joncoides [7] (chemical dosage 10 g/a) is 4 (Growth inhibition rate; 71 to 90%). Besides, the “Herbicidal effects Broad leaf” value in data set [8] (chemical dosage 10 g/a) is listed as 5 (Growth inhibition rate; 91 to 100%). Moreover, the “Herbicidal effects Barnyard grass” value in [9] (chemical dosage 10 g/a) was 0 (Growth inhibition rate; 0 to 10%). Besides, the “Crop injury against transplanted rice” value in data set [10] (chemical dosage 10 g/a) is on record as 0 (Growth inhibition rate; 0 to 10%).

With `C=CCc1ccccc1Oc1nnc(Cl)cc1OC` [Comparative compound, 3-(2-allylphenoxy)-6-chloro-4-methoxypyridazine, reference compound], the “Herbicidal effects Cyperus serotinus” value with Cyperus serotinus [6] (chemical dosage 25 g/a) is 0 (Growth inhibition rate; 0 to 10%). Also, the “Herbicidal effects Scirpus joncoides” value in the data set on Scirpus joncoides [7] (chemical dosage 25 g/a) is on record as 0 (Growth inhibition rate; 0 to 10%). Moreover, in [8] (chemical dosage 25 g/a), the “Herbicidal effects Broad leaf” value was 1 (Growth inhibition rate; 11 to 30%). Besides, the “Herbicidal effects Barnyard grass” value in [9] (chemical dosage 25 g/a) is recorded as 0 (Growth inhibition rate; 0 to 10%). For the same compound, the “Crop injury against transplanted rice” value in data set [10] (chemical dosage 25 g/a) is listed as 0 (Growth inhibition rate; 0 to 10%).

Consider `Oc1cc(Cl)nnc1Oc1ccccc1Cl` [Example 50], for which the “Herbicidal effects Cyperus serotinus” value in the data set with Cyperus serotinus [6] (chemical dosage 12.5 g/a) and with Cyperus serotinus [6] (chemical dosage 25 g/a) was 5 (Growth inhibition rate; 91 to 100%) throughout. For the same compound, the “Herbicidal effects Scirpus joncoides” value is 3 (Growth inhibition rate; 51 to 70%) in the data set with Scirpus joncoides [7] (chemical dosage 12.5 g/a) and 4 (Growth inhibition rate; 71 to 90%) with Scirpus joncoides [7] (chemical dosage 25 g/a). In addition, the “Herbicidal effects Broad leaf” value in [8] (chemical dosage 12.5 g/a) and in data set [8] (chemical dosage 25 g/a) was 5 (Growth inhibition rate; 91 to 100%) each time. In addition, the “Herbicidal effects Barnyard grass” value in data set [9] (chemical dosage 12.5 g/a) is 2 (Growth inhibition rate; 31 to 50%); in [9] (chemical dosage 25 g/a), 3 (Growth inhibition rate; 51 to 70%). The “Crop injury against transplanted rice” value in [10] (chemical dosage 12.5 g/a) and in data set [10] (chemical dosage 25 g/a) was 0 (Growth inhibition rate; 0 to 10%) in each case.

Consider `Cc1ccc2c(c1Oc1nnc(Cl)cc1O)CCC2` [Example 305], for which the “Herbicidal effects Cyperus serotinus” value in the data set with Cyperus serotinus [6] (chemical dosage 10 g/a) was 5 (Growth inhibition rate; 91 to 100%). The “Herbicidal effects Scirpus joncoides” value in the data set with Scirpus joncoides [7] (chemical dosage 10 g/a) was 5 (Growth inhibition rate; 91 to 100%). In addition, in [8] (chemical dosage 10 g/a), the “Herbicidal effects Broad leaf” value is recorded as 5 (Growth inhibition rate; 91 to 100%). Moreover, the “Herbicidal effects Barnyard grass” value in data set [9] (chemical dosage 10 g/a) is on record as 1 (Growth inhibition rate; 11 to 30%). For the same compound, the “Crop injury against transplanted rice” value in [10] (chemical dosage 10 g/a) was 0 (Growth inhibition rate; 0 to 10%).

On to `Oc1cc(Cl)nnc1Oc1c(Br)cccc1C1CC1` [Example 253], for which the “Herbicidal effects Cyperus serotinus” value in the data set with Cyperus serotinus [6] (chemical dosage 10 g/a) and with Cyperus serotinus [6] (chemical dosage 20 g/a) was 5 (Growth inhibition rate; 91 to 100%) each time. In addition, the “Herbicidal effects Scirpus joncoides” value in the data set with Scirpus joncoides [7] (chemical dosage 10 g/a) and in the data set on Scirpus joncoides [7] (chemical dosage 20 g/a) was 5 (Growth inhibition rate; 91 to 100%) in each case. In addition, the “Herbicidal effects Broad leaf” value in data set [8] (chemical dosage 10 g/a) and in [8] (chemical dosage 20 g/a) was 5 (Growth inhibition rate; 91 to 100%) in each case. Also, the “Herbicidal effects Barnyard grass” value is recorded as 3 (Growth inhibition rate; 51 to 70%) in data set [9] (chemical dosage 10 g/a) and 4 (Growth inhibition rate; 71 to 90%) in [9] (chemical dosage 20 g/a). For the same compound, the “Crop injury against transplanted rice” value in data set [10] (chemical dosage 10 g/a) and in data set [10] (chemical dosage 20 g/a) was 5 (Growth inhibition rate; 91 to 100%) each time.

For the compound `O=[N+]([O-])c1ccc(S(=O)(=O)Oc2cc(Cl)nnc2Oc2ccccc2C2CC2)cc1` [Example 394], the “Herbicidal effects Cyperus serotinus” value in the data set on Cyperus serotinus [6] (chemical dosage 10 g/a) and with Cyperus serotinus [6] (chemical dosage 20 g/a) was 5 (Growth inhibition rate; 91 to 100%) each time. Also, the “Herbicidal effects Scirpus joncoides” value is recorded as 4 (Growth inhibition rate; 71 to 90%) with Scirpus joncoides [7] (chemical dosage 10 g/a) and 5 (Growth inhibition rate; 91 to 100%) in the data set on Scirpus joncoides [7] (chemical dosage 20 g/a). For the same compound, the “Herbicidal effects Broad leaf” value in [8] (chemical dosage 10 g/a) and in [8] (chemical dosage 20 g/a) was 5 (Growth inhibition rate; 91 to 100%) in each case. Besides, the “Herbicidal effects Barnyard grass” value is reported as 2 (Growth inhibition rate; 31 to 50%) in [9] (chemical dosage 10 g/a) and 3 (Growth inhibition rate; 51 to 70%) in data set [9] (chemical dosage 20 g/a). Moreover, the “Crop injury against transplanted rice” value in data set [10] (chemical dosage 10 g/a) and in data set [10] (chemical dosage 20 g/a) was 0 (Growth inhibition rate; 0 to 10%) throughout.

For `CSc1ccccc1Oc1nnc(Cl)cc1O` [Example 129], the results for the “Herbicidal effects Cyperus serotinus” value in the data set with Cyperus serotinus [6] (chemical dosage 12.5 g/a) and with Cyperus serotinus [6] (chemical dosage 25 g/a) were 4 (Growth inhibition rate; 71 to 90%) and 5 (Growth inhibition rate; 91 to 100%), respectively. Besides, the “Herbicidal effects Scirpus joncoides” value in the data set with Scirpus joncoides [7] (chemical dosage 12.5 g/a) is recorded as 3 (Growth inhibition rate; 51 to 70%); in the data set with Scirpus joncoides [7] (chemical dosage 25 g/a), 4 (Growth inhibition rate; 71 to 90%). Besides, the “Herbicidal effects Broad leaf” value in data set [8] (chemical dosage 12.5 g/a) and in [8] (chemical dosage 25 g/a) was 5 (Growth inhibition rate; 91 to 100%) throughout. In addition, the “Herbicidal effects Barnyard grass” value in data set [9] (chemical dosage 12.5 g/a) was 1 (Growth inhibition rate; 11 to 30%); in data set [9] (chemical dosage 25 g/a), 2 (Growth inhibition rate; 31 to 50%). Besides, the “Crop injury against transplanted rice” value in data set [10] (chemical dosage 12.5 g/a) and in [10] (chemical dosage 25 g/a) was 0 (Growth inhibition rate; 0 to 10%) each time.
